Measured values reported in ChEMBL document CHEMBL1201862, “PubChem BioAssay data set” (2004).
“And” between values parts separate entries of the source, which are not always exact repeats. Equal entries are not always repeated. The source made the active and inactive calls.

Key:
[1] = cytotoxicity toward MDA-MB-231 breast cancer cells – cell-based, CellTiter-Glo luminescence, cherry-pick, cytotoxicity control for RAD54 inhibitor project, dose response (AID 651692); assay type: functional
[2] = target: T1, DNA repair and recombination protein RAD54-like (Homo sapiens, UniProt Q92698); assay: RAD54 Holliday junction migration blockers – biochemical, fluorescence, cherry-picked samples, dose series, confirmation (AID 651657); assay type: functional
T1 sequence (Q92698 whole entry): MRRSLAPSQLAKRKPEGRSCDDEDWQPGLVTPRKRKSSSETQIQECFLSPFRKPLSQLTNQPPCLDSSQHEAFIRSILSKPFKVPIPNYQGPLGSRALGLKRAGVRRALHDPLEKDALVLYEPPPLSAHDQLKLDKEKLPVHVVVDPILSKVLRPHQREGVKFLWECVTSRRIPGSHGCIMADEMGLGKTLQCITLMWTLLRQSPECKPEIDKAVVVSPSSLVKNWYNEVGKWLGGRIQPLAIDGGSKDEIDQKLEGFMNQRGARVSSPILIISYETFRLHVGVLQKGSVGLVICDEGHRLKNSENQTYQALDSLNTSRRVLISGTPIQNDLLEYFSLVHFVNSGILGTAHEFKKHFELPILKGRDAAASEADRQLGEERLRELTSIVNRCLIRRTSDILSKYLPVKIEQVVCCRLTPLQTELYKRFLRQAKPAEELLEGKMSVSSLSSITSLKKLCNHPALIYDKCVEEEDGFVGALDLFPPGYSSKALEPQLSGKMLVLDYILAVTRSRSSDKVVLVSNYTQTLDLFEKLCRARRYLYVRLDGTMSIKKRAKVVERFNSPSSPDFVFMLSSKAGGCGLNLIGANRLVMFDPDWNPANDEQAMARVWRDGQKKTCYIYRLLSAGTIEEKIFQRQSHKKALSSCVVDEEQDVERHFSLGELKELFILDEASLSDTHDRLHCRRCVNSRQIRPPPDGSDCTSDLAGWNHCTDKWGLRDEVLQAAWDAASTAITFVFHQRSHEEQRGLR

[3] = tested on: Vero; assay: viability of Vero cells under compound – cytotoxicity control for flavivirus capping enzyme inhibitors (AID 588742); assay type: functional; conditions: Chlorocebus sabaeus
[4] = target: Genome polyprotein (dengue virus type 2, UniProt P29990); assay: flavivirus cap methylation enzyme inhibition – biochemical, confirmation dose response, primary screen (AID 588689); assay type: functional
[5] = target: T2, Replicative DNA helicase DnaB (Mycobacterium tuberculosis, UniProt P9WMR3); assay: DnaB intein splicing inhibitors, dose response, biochemical, cell-free fluorescence (AID 449749); assay type: functional
T2 sequence (P9WMR3 whole entry): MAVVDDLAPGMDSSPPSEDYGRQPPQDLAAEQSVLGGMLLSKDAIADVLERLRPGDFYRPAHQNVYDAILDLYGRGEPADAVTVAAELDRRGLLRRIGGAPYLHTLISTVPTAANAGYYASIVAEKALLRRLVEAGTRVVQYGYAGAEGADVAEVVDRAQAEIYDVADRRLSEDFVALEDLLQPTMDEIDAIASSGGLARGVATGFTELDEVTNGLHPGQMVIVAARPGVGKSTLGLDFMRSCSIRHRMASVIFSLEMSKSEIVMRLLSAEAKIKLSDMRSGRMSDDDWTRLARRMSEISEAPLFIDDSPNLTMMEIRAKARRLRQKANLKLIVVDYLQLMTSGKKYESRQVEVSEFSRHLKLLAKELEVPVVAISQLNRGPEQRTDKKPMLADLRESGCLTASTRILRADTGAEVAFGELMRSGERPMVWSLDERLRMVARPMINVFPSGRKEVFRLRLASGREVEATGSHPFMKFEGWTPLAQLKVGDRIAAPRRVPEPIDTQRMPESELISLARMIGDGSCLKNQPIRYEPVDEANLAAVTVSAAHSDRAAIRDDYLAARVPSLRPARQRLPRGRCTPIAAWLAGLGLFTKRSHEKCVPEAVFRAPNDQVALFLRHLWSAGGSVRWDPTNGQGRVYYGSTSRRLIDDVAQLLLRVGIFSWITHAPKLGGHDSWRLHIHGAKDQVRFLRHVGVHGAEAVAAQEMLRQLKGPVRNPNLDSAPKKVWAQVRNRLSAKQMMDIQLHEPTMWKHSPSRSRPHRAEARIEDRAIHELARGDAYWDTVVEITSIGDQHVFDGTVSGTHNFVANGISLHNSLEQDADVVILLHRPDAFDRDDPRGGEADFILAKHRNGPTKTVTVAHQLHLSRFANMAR

[6] = target: T3, Protein RecA (Mycobacterium tuberculosis, UniProt P9WHJ3); assay: Fluorescence Cell-Free Homogeneous Dose Retest to Identify Inhibitors of RecA-Intein Splicing Activity. [Related pubchem assays (depositor defined):AID2097, AID2223, AID489010, AID492950]; assay type: functional
T3 sequence (P9WHJ3 whole entry): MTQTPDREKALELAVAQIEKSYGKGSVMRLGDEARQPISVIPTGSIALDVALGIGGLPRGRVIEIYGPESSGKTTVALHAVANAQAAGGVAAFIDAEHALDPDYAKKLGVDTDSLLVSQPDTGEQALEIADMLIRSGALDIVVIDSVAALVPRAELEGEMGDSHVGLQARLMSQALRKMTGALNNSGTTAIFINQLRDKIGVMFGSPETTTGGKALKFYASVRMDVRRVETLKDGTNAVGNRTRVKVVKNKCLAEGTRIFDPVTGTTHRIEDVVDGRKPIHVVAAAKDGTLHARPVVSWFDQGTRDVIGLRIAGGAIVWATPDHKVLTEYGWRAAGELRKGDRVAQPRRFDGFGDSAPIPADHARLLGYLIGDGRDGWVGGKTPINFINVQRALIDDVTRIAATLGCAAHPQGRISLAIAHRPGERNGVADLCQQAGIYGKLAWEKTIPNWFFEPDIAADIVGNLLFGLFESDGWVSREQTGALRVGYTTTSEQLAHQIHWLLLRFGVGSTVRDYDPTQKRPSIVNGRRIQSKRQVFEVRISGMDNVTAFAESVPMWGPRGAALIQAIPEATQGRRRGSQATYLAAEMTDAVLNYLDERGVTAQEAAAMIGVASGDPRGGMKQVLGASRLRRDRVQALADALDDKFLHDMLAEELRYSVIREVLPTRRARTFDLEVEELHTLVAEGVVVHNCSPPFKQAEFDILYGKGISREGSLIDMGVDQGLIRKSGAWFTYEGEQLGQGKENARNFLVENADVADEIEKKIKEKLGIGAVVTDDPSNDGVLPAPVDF

[7] = target: Hepatocyte nuclear factor 4-alpha (Homo sapiens, UniProt P41235); assay type: functional, cell-based;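 note: biochemical luminescence-based dose-response counterscreen measuring inhibition of HNF4 dimerization, run alongside a screen for blockers of ABHD5–perilipin-5 interaction; split luciferase complementation of HNF4 fusion proteins in cell lysate measuring dimerization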
[8] = target: T4, Beta-lactamase (Pseudomonas aeruginosa, UniProt Q79MP6); assay: inhibition of IMP-1 beta-lactamase activity – biochemical, epi-absorbance, selectivity assay for VIM-2 inhibitor project, dose response (AID 1920)
[9] = target: Beta-lactamase (Salmonella choleraesuis (strain SC-B67), UniProt Q5J463); assay: Epi-absorbance-based counterscreen for selective VIM-2 inhibitors: dose response biochemical high throughput screening assay to identify inhibitors of TEM-1 serine-beta-lactamase.
[10] = target: T4, Beta-lactamase; assay: […] counterscreen for selective VIM-2 inhibitors: dose response biochemical high throughput screening assay to identify inhibitors of IMP-1 metallo-beta-lactamase.
[11] = Counterscreen for […] of the human trace amine associated receptor 1 (TAAR1): Fluorescence-based cell-based high throughput dose response assay to identify nonselective Ga16 agonists.; assay type: functional
[12] = Counterscreen for antagonists of the human trace amine associated receptor 1 (hTAAR1): Fluorescence-based cell-based high throughput dose response assay to identify nonselective Ga16 antagonists.; assay type: functional
[13] = target: Eukaryotic translation initiation factor 4E (Mus musculus, UniProt P63073); assay: blockers of eIF4G binding by eIF4E – biochemical, TR-FRET, dose response (AID 855); assay type: functional;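 note: potency for disrupting eIF4E binding to eIF4GI seen as loss of FRET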
[14] = NIH3T3 cell viability loss – ATP luminescence, mouse fibroblasts, counter-screen, dose response (AID 2010); assay type: functional, cell-based;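 note: cells exposed to compound for about 90 hours before reading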
[15] = Trypanosoma cruzi growth suppression in host cells – NIH3T3 host cells, beta-gal luminescence, confirmation (AID 2044); assay type: functional, cell-based;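 note: intracellular parasites grown in NIH/3T3 mouse fibroblasts as host cells; luminescent beta-galactosidase reporter signal from transgenic T. cruzi replicating inside host cells; inhibitors lower the luminescence signal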
[16] = target: T5, ATP-dependent translocase ABCB1 (Homo sapiens, UniProt P08183); assay: inhibition of P-gp mediated JC-1 efflux – Jurkat-DNR cells, flow cytometry, dose response (AID 1689); assay type: functional
[17] = tested on: Streptococcus; assay: GAS UMAA2166 growth inhibition – luminescence, BacTiterGlo, counter-screen for streptokinase expression inhibitor project, dose response (AID 1915); assay type: functional, organism-based;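 note: potency for reduction of bacterial viability or growth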
[18] = tested on: Streptococcus sp. 'group A'; assay: Streptococcus pyogenes SK(-)GAS viability under kanamycin – luminescence, BacTiterGlo, confirmation, counter-screen for streptokinase expression inhibitor project, dose response (AID 1900); assay type: functional, organism-based
[19] = target: T6, Streptokinase A (Streptococcus pyogenes serotype M1, UniProt P10520); assay: viability-normalized secreted streptokinase activity reduction – plasminogen activation absorbance, OD405, dose response (AID 1914); assay type: functional, Streptococcus pyogenes M1 GAS;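 note: secreted streptokinase activity via plasminogen activation per viability signal from cell pellet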
T6 sequence (P10520 whole entry): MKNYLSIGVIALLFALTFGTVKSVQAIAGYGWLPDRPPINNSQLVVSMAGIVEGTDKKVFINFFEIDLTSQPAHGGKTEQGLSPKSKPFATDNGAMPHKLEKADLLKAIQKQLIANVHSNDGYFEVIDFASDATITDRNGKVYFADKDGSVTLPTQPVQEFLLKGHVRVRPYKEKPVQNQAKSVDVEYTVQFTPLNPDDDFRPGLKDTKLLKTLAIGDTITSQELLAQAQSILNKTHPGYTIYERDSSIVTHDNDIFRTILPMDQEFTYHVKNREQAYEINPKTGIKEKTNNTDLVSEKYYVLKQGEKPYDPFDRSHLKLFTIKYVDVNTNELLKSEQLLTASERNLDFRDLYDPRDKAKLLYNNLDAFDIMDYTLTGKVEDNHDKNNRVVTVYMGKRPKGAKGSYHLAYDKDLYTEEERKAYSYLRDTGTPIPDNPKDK

[20] = target: Broad substrate specificity ATP-binding cassette transporter ABCG2 (Homo sapiens, UniProt Q9UNQ0); assay: blockers of JC-1 export by ABCG2 – Ig-MXP3 cells, flow cytometry, dose response (AID 1690); assay type: functional
[21] = target: T5, ATP-dependent translocase ABCB1; assay: inhibition of BCRP-mediated JC-1 efflux – Ig-MXP3 cells, flow cytometry, set 2, dose response (AID 504566); assay type: functional; conditions: read-out: EC50_MICROM_;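 note: flow cytometry median green fluorescence of retained JC-1 dye; potency of efflux pump inhibition measured as rising substrate retention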
[22] = target: T5, ATP-dependent translocase ABCB1; assay: P-gp JC-1 efflux blockade concentration-response – Jurkat-DNR cells, flow cytometry, set 2, dose response (AID 504569); assay type: functional; conditions: read-out: EC50_MICROM_;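 note: potency of pump inhibitors that raise cellular JC-1 green fluorescence up to the nicardipine level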
[23] = target: Arf-GAP with SH3 domain, ANK repeat and PH domain-containing protein 1 (Homo sapiens, UniProt Q9ULH1); assay type: functional;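 note: biochemical fluorescence polarization dose–response screen measuring inhibition of ASAP1; ASAP1 GAP domain stimulating GTP hydrolysis by truncated human ARF1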
[24] = target: T7, Estrogen receptor (Homo sapiens, UniProt P03372);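 note: potency for inhibiting coactivator peptide recruitment to the receptor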
T7 sequence (P03372 whole entry): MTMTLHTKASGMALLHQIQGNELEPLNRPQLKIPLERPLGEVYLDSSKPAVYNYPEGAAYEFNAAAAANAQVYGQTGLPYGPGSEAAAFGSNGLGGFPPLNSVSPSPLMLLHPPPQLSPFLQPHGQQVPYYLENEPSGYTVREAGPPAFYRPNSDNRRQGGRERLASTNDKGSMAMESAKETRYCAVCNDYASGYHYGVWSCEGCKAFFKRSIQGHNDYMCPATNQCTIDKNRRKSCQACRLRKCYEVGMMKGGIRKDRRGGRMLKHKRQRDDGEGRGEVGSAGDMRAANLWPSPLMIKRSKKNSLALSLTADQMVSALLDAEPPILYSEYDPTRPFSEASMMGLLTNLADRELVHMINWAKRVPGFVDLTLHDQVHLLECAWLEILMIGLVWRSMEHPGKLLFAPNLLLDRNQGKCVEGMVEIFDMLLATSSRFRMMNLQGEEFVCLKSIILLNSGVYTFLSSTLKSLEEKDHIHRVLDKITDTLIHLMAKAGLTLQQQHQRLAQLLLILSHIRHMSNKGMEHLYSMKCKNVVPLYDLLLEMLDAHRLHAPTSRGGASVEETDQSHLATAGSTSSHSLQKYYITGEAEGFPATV

[25] = target: T8, Beta-2 adrenergic receptor (Homo sapiens, UniProt P07550); assay: Dose response for HTS for Beta-2AR agonists via FAP method from Powderset1.; assay type: functional
[26] = target: T8, Beta-2 adrenergic receptor; assay: ADRB2 activation measured by internalization – cell-based, FAP fluorogen, flow cytometry, cherry pick 1, dose response (AID 588763); assay type: functional

T8 sequence (P07550 whole entry): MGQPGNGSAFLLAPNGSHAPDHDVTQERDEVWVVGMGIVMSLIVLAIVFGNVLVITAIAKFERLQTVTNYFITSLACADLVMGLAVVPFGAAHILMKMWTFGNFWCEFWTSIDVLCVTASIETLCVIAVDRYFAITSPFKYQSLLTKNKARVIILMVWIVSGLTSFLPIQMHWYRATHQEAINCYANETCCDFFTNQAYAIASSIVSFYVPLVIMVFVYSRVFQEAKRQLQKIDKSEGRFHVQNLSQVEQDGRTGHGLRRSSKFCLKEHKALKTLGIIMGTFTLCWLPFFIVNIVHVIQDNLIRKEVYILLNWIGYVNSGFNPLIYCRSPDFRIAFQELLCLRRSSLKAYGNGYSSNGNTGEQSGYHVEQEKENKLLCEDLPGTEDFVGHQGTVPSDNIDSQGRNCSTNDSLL
T5 sequence (P08183 whole entry): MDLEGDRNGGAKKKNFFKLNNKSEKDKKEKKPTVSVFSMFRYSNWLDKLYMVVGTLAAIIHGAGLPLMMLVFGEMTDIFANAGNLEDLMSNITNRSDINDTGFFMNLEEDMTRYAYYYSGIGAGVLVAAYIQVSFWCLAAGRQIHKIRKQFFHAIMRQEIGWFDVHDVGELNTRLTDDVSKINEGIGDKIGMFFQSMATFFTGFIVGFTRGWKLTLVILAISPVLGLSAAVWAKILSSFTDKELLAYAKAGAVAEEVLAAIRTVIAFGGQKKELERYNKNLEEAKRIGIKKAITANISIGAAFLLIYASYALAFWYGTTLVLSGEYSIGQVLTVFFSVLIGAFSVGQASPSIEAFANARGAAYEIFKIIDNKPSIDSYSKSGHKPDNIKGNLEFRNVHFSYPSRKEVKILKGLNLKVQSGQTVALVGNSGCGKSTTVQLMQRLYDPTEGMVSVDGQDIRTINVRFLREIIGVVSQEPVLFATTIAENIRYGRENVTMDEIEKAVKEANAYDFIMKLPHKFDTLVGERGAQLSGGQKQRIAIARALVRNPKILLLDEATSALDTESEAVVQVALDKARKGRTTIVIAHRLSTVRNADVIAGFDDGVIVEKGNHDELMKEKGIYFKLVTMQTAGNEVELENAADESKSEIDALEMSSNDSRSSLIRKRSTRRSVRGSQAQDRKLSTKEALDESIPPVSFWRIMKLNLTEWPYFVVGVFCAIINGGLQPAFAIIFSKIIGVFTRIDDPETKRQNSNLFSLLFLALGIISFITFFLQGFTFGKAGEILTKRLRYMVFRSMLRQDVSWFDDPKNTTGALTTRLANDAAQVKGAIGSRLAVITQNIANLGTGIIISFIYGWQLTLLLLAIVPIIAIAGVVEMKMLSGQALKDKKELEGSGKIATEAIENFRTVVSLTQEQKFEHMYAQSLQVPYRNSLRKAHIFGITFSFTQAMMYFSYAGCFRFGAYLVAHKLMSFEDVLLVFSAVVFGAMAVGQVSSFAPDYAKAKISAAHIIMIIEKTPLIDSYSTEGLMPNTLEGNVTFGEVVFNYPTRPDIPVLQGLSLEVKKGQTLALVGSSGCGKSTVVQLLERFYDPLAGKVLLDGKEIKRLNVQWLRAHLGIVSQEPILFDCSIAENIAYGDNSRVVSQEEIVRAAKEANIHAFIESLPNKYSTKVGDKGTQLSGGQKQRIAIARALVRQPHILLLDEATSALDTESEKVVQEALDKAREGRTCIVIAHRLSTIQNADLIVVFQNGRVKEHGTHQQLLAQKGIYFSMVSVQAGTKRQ
T4 sequence (Q79MP6 whole entry): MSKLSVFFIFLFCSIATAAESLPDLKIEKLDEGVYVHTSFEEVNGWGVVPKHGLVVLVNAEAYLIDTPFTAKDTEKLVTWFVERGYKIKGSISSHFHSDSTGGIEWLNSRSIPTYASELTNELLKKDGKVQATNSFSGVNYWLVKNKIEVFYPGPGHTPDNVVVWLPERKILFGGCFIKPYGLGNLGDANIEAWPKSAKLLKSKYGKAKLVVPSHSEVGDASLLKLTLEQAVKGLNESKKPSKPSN
Chain of Beta-lactamase (Salmonella choleraesuis (strain SC-B67), UniProt Q5J463) (Q5J463 whole entry): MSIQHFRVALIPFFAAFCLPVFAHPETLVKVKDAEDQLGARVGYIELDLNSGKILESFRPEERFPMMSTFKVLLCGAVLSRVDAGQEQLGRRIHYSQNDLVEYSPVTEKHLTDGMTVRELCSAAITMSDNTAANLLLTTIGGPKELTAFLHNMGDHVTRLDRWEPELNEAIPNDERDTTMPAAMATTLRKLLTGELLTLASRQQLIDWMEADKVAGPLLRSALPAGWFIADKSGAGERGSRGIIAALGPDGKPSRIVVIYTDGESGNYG
Chain of Arf-GAP with SH3 domain, ANK repeat and PH domain-containing protein 1 (Q9ULH1 whole entry, the tested form may be a part): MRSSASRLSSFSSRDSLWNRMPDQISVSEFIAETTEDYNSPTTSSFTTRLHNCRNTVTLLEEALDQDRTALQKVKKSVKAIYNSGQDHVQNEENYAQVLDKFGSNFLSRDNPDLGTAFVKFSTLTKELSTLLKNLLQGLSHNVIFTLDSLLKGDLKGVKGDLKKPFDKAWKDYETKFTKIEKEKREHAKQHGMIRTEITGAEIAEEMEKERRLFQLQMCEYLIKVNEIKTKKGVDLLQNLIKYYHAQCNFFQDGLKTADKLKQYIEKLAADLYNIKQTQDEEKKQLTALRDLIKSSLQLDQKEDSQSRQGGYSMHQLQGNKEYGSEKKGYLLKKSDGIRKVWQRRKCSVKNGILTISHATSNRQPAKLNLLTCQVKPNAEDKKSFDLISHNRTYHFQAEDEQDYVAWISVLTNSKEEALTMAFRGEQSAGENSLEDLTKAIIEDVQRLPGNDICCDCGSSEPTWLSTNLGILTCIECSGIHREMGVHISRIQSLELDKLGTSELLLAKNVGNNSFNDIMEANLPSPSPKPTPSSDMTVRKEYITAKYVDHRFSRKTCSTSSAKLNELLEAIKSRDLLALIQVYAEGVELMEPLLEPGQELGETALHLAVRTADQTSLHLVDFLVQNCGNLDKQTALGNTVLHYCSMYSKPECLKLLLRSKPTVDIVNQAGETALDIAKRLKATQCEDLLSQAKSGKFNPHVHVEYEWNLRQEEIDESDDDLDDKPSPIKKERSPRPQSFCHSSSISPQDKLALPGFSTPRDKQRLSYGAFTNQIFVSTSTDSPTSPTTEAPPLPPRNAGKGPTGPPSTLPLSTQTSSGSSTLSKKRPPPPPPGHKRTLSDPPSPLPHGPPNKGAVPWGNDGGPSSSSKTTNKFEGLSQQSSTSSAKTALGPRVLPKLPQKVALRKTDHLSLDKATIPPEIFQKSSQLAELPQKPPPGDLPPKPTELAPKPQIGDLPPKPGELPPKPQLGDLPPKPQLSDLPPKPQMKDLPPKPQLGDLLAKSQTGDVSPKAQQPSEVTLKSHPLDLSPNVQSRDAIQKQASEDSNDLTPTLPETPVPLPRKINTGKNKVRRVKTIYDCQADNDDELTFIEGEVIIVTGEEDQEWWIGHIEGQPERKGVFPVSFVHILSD
Chain of Broad substrate specificity ATP-binding cassette transporter ABCG2 (Q9UNQ0 whole entry): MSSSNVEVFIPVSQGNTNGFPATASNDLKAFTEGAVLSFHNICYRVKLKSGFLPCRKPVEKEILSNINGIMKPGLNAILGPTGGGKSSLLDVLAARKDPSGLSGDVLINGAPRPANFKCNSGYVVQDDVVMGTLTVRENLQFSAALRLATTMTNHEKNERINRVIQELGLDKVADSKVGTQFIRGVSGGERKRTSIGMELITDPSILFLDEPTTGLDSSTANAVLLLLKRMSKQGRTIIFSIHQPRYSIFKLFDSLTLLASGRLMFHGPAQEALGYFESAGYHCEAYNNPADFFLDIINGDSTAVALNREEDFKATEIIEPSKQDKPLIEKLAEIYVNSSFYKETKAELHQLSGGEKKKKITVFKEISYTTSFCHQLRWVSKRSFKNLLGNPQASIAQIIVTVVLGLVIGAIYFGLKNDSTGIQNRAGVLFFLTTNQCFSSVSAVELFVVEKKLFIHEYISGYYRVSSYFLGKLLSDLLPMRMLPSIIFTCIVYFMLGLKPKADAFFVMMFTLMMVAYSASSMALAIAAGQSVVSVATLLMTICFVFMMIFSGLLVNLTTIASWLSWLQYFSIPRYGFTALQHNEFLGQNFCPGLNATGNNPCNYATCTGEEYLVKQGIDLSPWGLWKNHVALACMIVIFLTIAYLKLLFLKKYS
Chain of Hepatocyte nuclear factor 4-alpha (P41235 whole entry, the tested form may be a part): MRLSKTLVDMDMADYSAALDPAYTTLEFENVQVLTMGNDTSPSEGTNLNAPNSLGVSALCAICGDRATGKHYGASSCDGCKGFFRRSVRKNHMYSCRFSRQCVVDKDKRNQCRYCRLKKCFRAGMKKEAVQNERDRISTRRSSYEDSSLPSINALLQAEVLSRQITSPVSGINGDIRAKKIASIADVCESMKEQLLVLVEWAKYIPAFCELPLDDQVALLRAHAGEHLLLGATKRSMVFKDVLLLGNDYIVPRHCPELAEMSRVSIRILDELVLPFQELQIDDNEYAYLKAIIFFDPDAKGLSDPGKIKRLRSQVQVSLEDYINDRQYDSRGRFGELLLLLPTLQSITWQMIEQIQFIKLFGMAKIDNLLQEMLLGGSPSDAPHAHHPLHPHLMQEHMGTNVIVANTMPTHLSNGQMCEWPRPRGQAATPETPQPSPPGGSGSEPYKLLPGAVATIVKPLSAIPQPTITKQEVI
Chain of Eukaryotic translation initiation factor 4E (P63073 whole entry): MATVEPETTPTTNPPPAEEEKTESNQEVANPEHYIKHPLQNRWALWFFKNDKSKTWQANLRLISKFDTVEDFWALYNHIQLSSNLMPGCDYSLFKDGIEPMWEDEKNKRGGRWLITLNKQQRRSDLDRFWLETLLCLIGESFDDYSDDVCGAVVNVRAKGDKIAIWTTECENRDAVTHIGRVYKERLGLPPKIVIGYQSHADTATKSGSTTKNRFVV

## CCOC(=O)N1CCN(S(=O)(=O)c2ccc(C(=O)Nc3sc4c(c3C(=O)OC)CCN(C)C4)cc2)CC1
[1]
  AC50: 17.1 µM (active)
[2]
  AC50: 16.8 µM (active)

## CC(=O)Oc1c(Br)cc(N(C(C)=O)S(=O)(=O)c2ccccc2)c2ccccc12
[3]
  CC50: 39.8 µM (active)
[4]
  IC50: 49.8 µM (active)
[5]
  AC50: 3.76 µM (active)
[6]
  EC50: 2.81 µM (active)
[7]
  IC50: 6.11 µM (active)

## O=C(CSc1nnc(NC(=O)c2ccccc2)s1)NCc1ccco1
[8]
  IC50: > 59.6 µM (inactive)
[9]
  IC50: > 59.6 µM (inactive)
[10]
  IC50: > 59.6 µM (inactive)

## Cc1ccc(-n2c(C)cc(/C=N/Nc3ccc([N+](=O)[O-])cn3)c2C)cc1
[11]
  EC50: > 29.9 µM (inactive)
[12]
  IC50: > 29.9 µM (inactive)
[13]
  IC50: > 64 µM (inactive)

## COc1ccc(-c2nn(-c3ccccc3)cc2/C=C/C(=O)N2CCN(c3ccccn3)CC2)cc1
[14]
  EC50: > 60 µM (not active)
[15]
  EC50: 2.34 µM (active)
[16]
  EC50: 1.64 µM (active)
[17]
  EC50: 39.3 µM (active)
[18]
  EC50: 3.86 µM (active)
[19]
  EC50: > 150 µM (not active)
[20]
  EC50: 0.41 µM (active)

## COc1ccc(-c2cc3nc(C)cc(N4CCN(C(=O)c5cccnc5)CC4)n3n2)cc1
[21]
  EC50: 10.7 µM (active)
[22]
  EC50: 19 µM (inactive)

## COc1ccc2c(c1)CC/C(=C\c1ccc(OC)c(Cn3nc(C)cc3C)c1)C2=O
[23]
  IC50: 26.8 µM (inactive)
[24]
  IC50: > 50 µM (not active)

## CN(CC(=O)N1CCN(c2ccccn2)CC1)S(=O)(=O)c1ccc(Br)cc1
[25]
  EC50: 0.0191 µM (active)
[26]
  EC50: 82.8 nM (active) and 35.6 nM (active)
